Experimental findings from patent US20250275976A1, “Methods of Treating Neuroinflammatory Conditions” (Athira Pharma, Inc., priority 2022, published 2025) are described below.

Square brackets hold non-standard residues; d marks the D form. Peptide text beside a SMILES is read from it. * marks the point of attachment. Hexanoyl = CCCCCC(=O)*; Ahx = NCCCCCC(=O)O

Test [1] has as its system THP-1-differentiated macrophages. Briefly: Pro-inflammatory cytokines in supernatants of LPS-challenged THP-1-differentiated macrophages. The class given is cell-based, human. On the set-up: key to Significant reduction in pro-inflammatory cytokine expression: IL-6 / Significant reduction in pro-inflammatory cytokine expression: TNF-α / Significant reduction in pro-inflammatory cytokine expression: IL-1β: “NS” indicates a non-significant reduction in the indicated cytokine; “+” indicates a p value <0.05 in Tukey post test; “++” indicates a p value <0.01 in Tukey post test. The note with it: for Expression of IL-1β and TNF-α (result in words) / Expression of IL-6 (result in words): at at least one tested dose; for Significant reduction in pro-inflammatory cytokine expression: IL-1β / Significant reduction in pro-inflammatory cytokine expression: IL-6 / Significant reduction in pro-inflammatory cytokine expression: TNF-α: LPS 24 hrs. From the text:
Neuroinflammation plays a crucial role in disease progression and is a complex phenomenon involving various cells that affect many extra- and intracellular signaling pathways and cytokine production. The macrophage of the brain (microglia) is the main agent of innate immunity in the CNS and performs various functions, including neuroprotection, in response to inflammatory signals. Activated microglia participate in developing neuroinflammation, responding to toxic exogenous substances (like LPS) or endogenous substances (like amyloid-beta). Here, THP-1 cells were used as an in-vitro cell model to evaluate mechanisms relevant to CNS inflammation. Differentiation with phorbol-12-myristate-13-acetate (PMA) causes THP-1 monocyte cells to acquire functional and morphological resemblance to macrophages. LPS interacts with THP-1 differentiated macrophage through the toll-like receptor 4, triggering the inflammatory response and stimulating pro-inflammatory cytokine release and eventually leading to cellular death. Test compounds were investigated for whether they have anti-inflammatory effects on LPS-challenged macrophage cultures. THP-1-differentiated macrophages were treated with test compounds for 20 minutes, followed by 24 hrs of LPS challenge. Culture supernatants were then collected to analyzed for the presence of pro-inflammatory cytokines: interleukin 1β (IL--1β), interleukin 6 (IL-6) and tumor necrosis factor α (TNF-α).
Cytokine quantification in cell culture supernatants was accomplished by homogeneous time resolved fluorescence (HTRF) kits to assess levels of IL-1β (Human IL-1β kit, #62HIL1BPEG, Cisbio) and IL-6 (Human IL-6 kit, 62HILO6PET, Cisbio), and by ELISA (Human TNF-α ELISA kit, KHC3011, ThermoFisher) to determine the levels of TNF-α.
Data analysis was performed via 1-way ANOVA with Tukey post-test compared to LPS treatment cultures using Prism statistical software (GraphPad). Tabular data indicates significance of reduction in culture supernatants for the indicated analyte at the indicated dose.

For test [2], the system named is Rat primary cortical neuron cultures. Briefly: Neuroprotection of rat cortical neurons against LPS challenge (Cell Titer-Glo). The note with it: for Protection of primary neurons from LPS-stimulated inflammatory toxicity (in words): at at least one dose tested; for Significance of neuroprotection vs 1 uM LPS: LPS 24 h. (ATP-based viability assays read luminescence as a measure of living cells.)
Protocol: To assess the neuroprotective effect of compound treatment against inflammatory insult, primary cultured cortical neurons were subjected to lipopolysaccharide (LPS) treatment for 24h along with various compound doses of compounds of Formula (I) or Compound A19. […] Rat primary cortical neuron cultures were grown at 37° C., 5% C02 in Complete Neurobasal Medium supplemented with B27/GDNF/BDNF containing 10% FBS until maturity. 25 μl of culture volume were seeded in a 384-well plate at 5,000 cells/well, and treated with 1 μM, 100 nM, 10 nM, 1 nM, or 0.1 nM of test compound for 15 minutes. Cells were then subjected to 1 μM LPS challenge for 24 hours. Luminescence measurements to assess relative levels of ATP were performed on an Envision plate reader (Perkin Elmer). Data for DMSO control were set to 100% cell viability, and each group (n=4) were averaged and presented as mean±SEM.

For the compound `CCC(C)CN1CC2N(C(=O)c3ccc(C(F)(F)F)cc3)CCC(=O)N2[C@@H](C)C1=O` (some centres unmarked) [Compound 1a], in test [1], the “Expression of IL-1β and TNF-α (result in words)” value (“Expression of IL-1β and TNF-α” for short) is on record as “significantly reduced”; the “Expression of IL-6 (result in words)” value is on record as “significantly reduced”. Moreover, in test [1] (dose 0.1 nM), the “Significant reduction in pro-inflammatory cytokine expression: IL-1β” value (from here on “Significant reduction … IL-1β”) is given as “++ (“++” indicates a p value <0.01 in Tukey post test)”, the “Significant reduction in pro-inflammatory cytokine expression: IL-6” value (“Significant reduction … IL-6” below) is reported as “NS” and the “Significant reduction in pro-inflammatory cytokine expression: TNF-α” value (from here on “Significant reduction … TNF-α”) was “++ (“++” indicates a p value <0.01 in Tukey post test)”. In test [1] (dose 10 nM), the “Significant reduction … IL-1β” value is “++ (“++” indicates a p value <0.01 in Tukey post test)”, the “Significant reduction … IL-6” value is given as “++ (“++” indicates a p value <0.01 in Tukey post test)” and the “Significant reduction … TNF-α” value is “++ (“++” indicates a p value <0.01 in Tukey post test)”. For the same compound, in test [1] (dose 1000 nM), the “Significant reduction … IL-1β” value was “++ (“++” indicates a p value <0.01 in Tukey post test)”, the “Significant reduction … IL-6” value is recorded as “+ (“+” indicates a p value <0.05 in Tukey post test)” and the “Significant reduction … TNF-α” value is recorded as “++ (“++” indicates a p value <0.01 in Tukey post test)”. The “Protection of primary neurons from LPS-stimulated inflammatory toxicity (in words)” value (“Protection of primary neurons” below) in test [2] is recorded as “protected primary neurons from LPS-stimulated inflammatory toxicity”.
As to `CCCCCC(=O)N[C@@H](Cc1ccc(O)cc1)C(=O)N[C@H](C(=O)NCCCCCC(N)=O)[C@@H](C)CC` [Compound A19 active metabolite, dihexa] (Hexanoyl-Tyr-Ile-[Ahx]-NH2), in test [1], the “Expression of IL-1β and TNF-α” value is “significantly reduced”. For the same compound, the “Expression of IL-6 (result in words)” value in test [1] is recorded as “significantly reduced”. Moreover, the “Significant reduction … IL-1β” value in test [1] (dose 0.1 nM) is “NS”; in test [1] (dose 10 nM) it was “++ (“++” indicates a p value <0.01 in Tukey post test)”; in test [1] (dose 1000 nM) it was “+ (“+” indicates a p value <0.05 in Tukey post test)”. Besides, the entries for the “Significant reduction … IL-6” value in test [1] (dose 0.1 nM), in test [1] (dose 10 nM) and in test [1] (dose 1000 nM) were “NS”, “+ (“+” indicates a p value <0.05 in Tukey post test)” and “++ (“++” indicates a p value <0.01 in Tukey post test)”, respectively. The “Significant reduction … TNF-α” value in test [1] (dose 0.1 nM) was “NS”; in test [1] (dose 10 nM), “+ (“+” indicates a p value <0.05 in Tukey post test)”; in test [1] (dose 1000 nM) it was “++ (“++” indicates a p value <0.01 in Tukey post test)”. Further, the “Protection of primary neurons” value in test [2] is recorded as “protected primary neurons from LPS-stimulated inflammatory toxicity”. Also, the “Significance of neuroprotection vs 1 uM LPS” value is “+++ (+++ indicates p<0.001)” in test [2] (dose 0.1 nM); “++ (++ indicates p<0.01)” in test [2] (dose 1 nM); “+++ (+++ indicates p<0.001)” in test [2] (dose 10 nM); “++ (++ indicates p<0.01)” in test [2] (dose 100 nM); “++ (++ indicates p<0.01)” in test [2] (dose 1 μM).
With `CCC(C)CN1CC2N(Cc3ccc(C(F)(F)F)cc3)CCC(=O)N2[C@@H](C)C1=O` (some centres unmarked) [Compound 5a], in test [1], the “Expression of IL-1β and TNF-α” value is listed as “significantly reduced”; the “Expression of IL-6 (result in words)” value was “significantly reduced”. Besides, in test [1] (dose 0.1 nM), the “Significant reduction … IL-1β” value was “++ (“++” indicates a p value <0.01 in Tukey post test)”, the “Significant reduction … IL-6” value was “NS” and the “Significant reduction … TNF-α” value was “NS”. Further, in test [1] (dose 10 nM), the “Significant reduction … IL-1β” value is recorded as “++ (“++” indicates a p value <0.01 in Tukey post test)”, the “Significant reduction … IL-6” value is given as “+ (“+” indicates a p value <0.05 in Tukey post test)” and the “Significant reduction … TNF-α” value was “NS”. In test [1] (dose 1000 nM), the “Significant reduction … IL-1β” value was “++ (“++” indicates a p value <0.01 in Tukey post test)”, the “Significant reduction … IL-6” value was “++ (“++” indicates a p value <0.01 in Tukey post test)” and the “Significant reduction … TNF-α” value is given as “+ (“+” indicates a p value <0.05 in Tukey post test)”. Besides, the “Protection of primary neurons” value in test [2] is “protected primary neurons from LPS-stimulated inflammatory toxicity”.
